Molecules are shown by their SMILES.

The results in this text go back to patent US10197579B2, “Methods for measurement of inhibition of c-Jun N-terminal kinase in skin” (Signal Pharmaceuticals, LLC, priority 2014, dated 2019).

In this assay the test system is phosphorylation of c-Jun at Ser63 in HEKa cells. As to the kind of experiment: UVB-induced c-Jun Ser63 phosphorylation in HEKa keratinocytes (Western immunoblotting). It counts as cell-based, Human. The conditions noted are these: HEKa cells from four donors; 50 mJ/cm^2 UVB; Compound 1 added 1 hour before and kept 30 minutes after irradiation; nuclear extract, Western blot (FIGS. 1-5). As for the experimental part: Adult Normal Human […] Keratinocytes (HEKa) were obtained from ScienCell. Cells were plated in 10 cm dishes and incubated to allow attachment and then serum starved overnight. Compound 1 was added 1 hour before the cells were irradiated with 50 mJ/cm^2 UVB. Cells were incubated with Compound 1 for an additional 30 minutes after UVB irradiation. Cells were then lysed and nuclear and cytoplasmic proteins were isolated using the Nuclear Extraction kit by Active Motif. Protein was run on 10% tris glycine gels and transferred to nitrocellulose membranes. Blots were blocked for 1 hour. Total and phosphorylated c-Jun primary antibodies were added and incubated overnight. Licor secondary antibodies were added and blots were read on the Li-Cor Odyssey. 1-5. There was increased phosphorylation of c-Jun at Ser63 with 50 mJ/cm^2 UVB radiation, and inhibition by Compound 1 (FIGS. 1-5). There was also good separation of the nuclear and cytoplasmic proteins (c-Jun is only in the nucleus) (FIGS. 1-4).
In general terms: In western blotting, separated proteins are transferred to a membrane and probed.

With `C[C@@H]1CC[C@@H](Nc2nc(NC(C)(C)C)ncc2C(N)=O)C[C@H]1O` [Compound 1, 2-(tert-butylamino)-4-((1R,3R,4R)-3-hydroxy-4-methylcyclohexylamino)-pyrimidine-5-carboxamide], the “inhibition of phosphorylation of c-Jun at Ser63 induced by UVB radiation” value is recorded as “inhibits c-Jun phosphorylation at Ser63 in a dose dependent manor”.
